Source: patent publication US11207277B2, “Methods of treating diseases associated with high-fat diet and vitamin a deficiency using retinoic acid receptor agonists” (Cornell University, priority 2013, dated 2021)
“Also recorded” adds a separate entry of the source.

What was measured:
[1] = tested on: retinyl palmitate and retinol; assay: HPLC analysis of liver retinoids; type: in vivo, mice
From the text: (§1) WT male C57/BL6 male mice were maintained on either a standard laboratory chow-fed diet (CFD) with 13% kcal fat, (diet #5053, Lab Diet, Inc, St. Louis, Mo.) or a high fat, western style diet (HFD) with 60% kcals from fat, (diet #58126, Lab Diet, Inc., St. Louis, Mo.) for 4 months. One month after the start of the high fat diet treatment, the high fat diet group was further split into 2 groups for 3 months: i) high fat diet and the drinking water containing 1% DMSO; ii) high fat diet and the drinking water containing 1.5 mg/100 ml AC261066, a specific RARβ agonist. Then mice were sacrificed by cervical dislocation. Blood and various tissue samples were harvested.
The frozen liver tissue samples (˜100 mg) were homogenized in 500 μl cold phosphate-buffered saline (PBS). In addition, 100 μl serum was diluted in cold PBS to total volume of 500 μl. Retinyl acetate was added to each sample before the retinoid extraction for the calculation of extraction efficiency. The retinoids were extracted into 350 μl of organic solution (acetonitrile/butanol, 50:50, v/v) in the dark. The high performance liquid chromatography (HPLC) was performed using a Waters Millennium system (Waters). Each sample (100 μl of the 350 μl) was loaded onto an analytical 5-μm reverse phase C18 column (Vydac, Hesperia, Calif.) and eluted at a flow rate of 1.5 ml/min. Two mobile phase gradient systems were used. Retinoids were identified by HPLC based on two criteria: an exact match of the retention times of unknown peaks with those of authentic retinoid standards and identical UV light spectra (220-400 nm) of unknowns against spectra from authentic retinoid standards during HPLC by the use of a photodiode array detector. The amounts of retinoids were calculated from the areas under the peaks detected at the wave-length of 325 nm. The levels of retinol and retinyl esters were normalized to the tissue weight.

hepatic lipids = assay: Oil red O staining of liver sections; type: in vivo; conditions: HF diet mice + AC261066 or CD1530; vs HF-vehicle
From the text: as §1
(§2) Staining. Fresh mouse liver samples were embedded in optimal cutting temperature (OCT) medium and immediately frozen to −70 centigrade. Cryosections were then fixed in 4% formaldehyde for 1 hr at room temp. Slides were then rinsed three times in deionized water (dH2O) for 30 s, followed by treatment with 0.5% Triton X-100 in PBS for 5 min. Sections were then washed three times with PBS for 5 min. Samples were with incubated 2% bovine serum albumin (BSA) for 30 min at room temperature to block for unspecific antibody binding. Following blocking, sections were washed three times in PBS and incubated with mouse monoclonal antibody against α-SMA (1:500) (Dako, Inc) for 24 h at 4° C. […]

RARβ2 = assay: Semi-quantitative PCR kidney, RARβ2; type: in vivo; conditions: HF diet mice + AC261066
From the text: as §1
(§3) Total RNA was extracted from mouse tissues using TRIzol reagent (Life technologies) and (1 μg) was used to synthesize cDNA. cDNA synthesis was performed at 42° C. for 1 h in a final volume of 20 μl using qScript (Quanta, MD). Semi-quantitative PCR were performed Taq DNA polymerase (Invitrogen. CA). Three step PCR was run as follows: 94° C. for 30 s, 58-64° C. for 45 s for primer annealing and 72° C. for 1 min for primer extension. The number of cycles for each primer pair for amplification in the linear range was determined experimentally. PCR products were resolved on 2% agarose gels and visualized by staining with ehtidium bromide. Primers for gene expression used were as follows: […]

LRAT = assay: Semi-quantitative PCR kidney, LRAT; type: in vivo; conditions: HF diet mice + AC261066
From the text: as §1, §3

α-SMA = α-SMA immunofluorescence of kidney sections; type: in vivo; conditions: HF diet mice + AC261066
From the text: as §1
as §2, with “Fresh” for “Staining. Fresh”, “kidney” for “liver”

c-peptide = assay: c-peptide/glucagon immunofluorescence of pancreatic islets, HF-fed mice; type: in vivo
Method: Immunofluorescence assays on cells and tissue sections were performed as previously described (29). Briefly, differentiated samples were fixed using 4% (w/v) paraformaldehyde and membrane permeabilization (for cells only) was done with 0.3% (w/v) Triton-X 100 (Sigma). Unspecific sites were blocked using 2% BSA for 30 min prior to incubation with rabbit polyclonal anti-PDX1 (Millipore, 06-1379, 1:1000), rabbit anti-C-Peptide (Cell Signaling, 4593, 1:500, Danvers, Mass.) and mouse monoclonal anti-Glucagon (Abcam, ab10988, 1:200) primary antibodies. Phalloidin-TRITC (Millipore, FAK100, 1:1000, Billerica, Mass.) was used to stain the actin stress fiber network (F-actin). Nuclei were stained using DAPI contained in Vectashield® mounting medium for fluorescence (Vector labs, Burlingame, Calif.). Quantitation of C-peptide positive stained cells and islet surface area was performed using MS-Elements Advanced Research software (Nikon).
WT male C57/BL6 male mice were maintained on either a standard laboratory chow-fed diet (CFD) with 13% kcal fat, (diet #5053, Lab Diet, Inc, St. Louis, Mo.) or a high fat, western style diet (HFD) with 60% kcals from fat, (diet #58126, Lab Diet, Inc., St. Louis, Mo.) for 4 months. […]

alpha-SMA = assay: Semi-quantitative PCR liver, alpha-SMA; type: in vivo; conditions: HF diet mice + AC261066 or CD1530; vs HF-vehicle
From the text: as §1
as §3, with “(Invitrogen,” for “(Invitrogen.”, “resolved” for “resolved on”

MCP-1 = assay: Semi-quantitative PCR liver, MCP-1; type: in vivo; conditions: HF diet mice + AC261066 or CD1530
From the text: as §1
as §3, with “(Invitrogen,” for “(Invitrogen.”, “resolved” for “resolved on”

[2] = HF diet mice + AC261066 or CD1530 vs controls

Structure (SMILES): CCCCOCCOc1nc(-c2ccc(C(=O)O)c(F)c2)sc1C [AC261066]
- higher levels of retinyl palmitate in the livers compared to HF-vehicle treated mice ([1]; HF diet mice + AC261066): 55%
- liver retinol compared to controls [1, 2]: significantly lowered
- liver retinyl palmitate compared to controls [1, 2]: significantly lowered
- vitamin A deficiency in liver caused by high fat diet ([1]; HFD+AC261066): partially reversed
- hepatic lipid accumulation (oil red O) (hepatic lipids): marked diminished hepatic lipid accumulation
- RARβ2 mRNA levels in kidney (RARβ2): restores RAR beta and LRAT mRNA levels; also recorded: did not have decreased RARβ2 mRNA levels
- LRAT mRNA levels in kidney (LRAT): restores RAR beta and LRAT mRNA levels
- α-SMA positive areas in kidney (α-SMA): diminished expression of the fibrogenic protein alpha-SMA; also recorded: not observed
- c-peptide level in pancreatic islets (c-peptide; HF diet + AC261066 vs HF diet mice): slightly reduces expression of c-peptide; also recorded: slightly decreased c-peptide level
- c-peptide staining in pancreatic islets (c-peptide; HF+AC261066 fed mice vs control diet controls): marked increase in c-peptide staining
- hepatic mRNA levels of alpha-SMA (alpha-SMA): also decreased
- mRNA levels of MCP-1 in liver (MCP-1): decreases levels of inflammatory proteins MCP-1 and TNF alpha
